The source of these data is patent publication US12697328B2, “Methods for treating metastasis with cathepsin C inhibitors” (Shanghai Institute of Nutrition and Health, Chinese Academy …, priority 2020, dated 2026).

The subject of the assay is murine neutrophils. In words: In vitro NET analysis of neutrophils cultured in 4T07 or 4T1 conditioned media. It is filed as cell-based. Conditions: Sivelestat 10 μM or DNase I 1 μg/ml; FIG. 8F. How it is done: To assess NET formation, neutrophils (2.5×10^5 cells) were seeded on coverslips coated with poly-L-lysine (P4707, Sigma) in 24-well plates for 30 min before adding 10% cancer cell CM, Sivelestat (10 μM), PMA (20 nM, Sigma), Cl-amidine (100 μM, Selleck) and/or DNase I (1 μg/ml). After 12 to 16 h at 37° C., neutrophils were fixed with 4% paraformaldehyde (PFA) for 10 min at room temperature, washed twice with PBS and permeabilized in 0.1% Triton X-100 for 5 min. […] NET area quantification was performed using the DANA method (Rebernick et al., “DNA area and NETosis analysis (DANA): a high-throughput method to quantify neutrophil extracellular traps in fluorescent microscope images,” Biol. Proced. Online 20:7 (2018)). Briefly, the areas of structures depicting NET morphology and positive for Ci-H3 or total H3 were counted as NETotic cell areas, and the NET area percentages were analyzed as NETotic cell areas divided by total DNA areas. The percentages of NETotic cells were analyzed as previously described ([…]). […] The percentage of NETotic cells was counted as the numbers of NETotic cells divided by the total cell numbers. […]

As to `CC(C)(C)C(=O)Oc1ccc(S(=O)(=O)Nc2ccccc2C(=O)NCC(=O)O)cc1` [Silvelestat], the “NET formation induced by CTSC (percentage area covered by NETs)” value was “blocks the ability of CTSC to induce NET formation”.
